The values that follow are results of earlier work, collected in patent US6794359B2, “Vertebrate intestinal protein which absorbs cholesterol, its inhibitors and mehtod of identifying the same” (Aventis Pharma Deutschland GmbH, priority 2000, dated 2004).

Data set [1] concerns intestinal cholesterol absorption. The following applies: humans.
For data set [2] the test system is unchanged. The conditions noted are these: rabbits.
Data set [3] has the same test system. The following applies: dogs.
The test system is the same in data set [4]. The conditions noted are these: rhesus monkeys.
Data set [5] shares this test system. The following applies: hamsters.

Like-named read-outs stand apart in the source and are kept apart here.

On to `COc1ccc([C@@H]2[C@@H](CCCc3ccccc3)C(=O)N2c2ccc(OC)cc2)cc1` [SCH 48461], for which the “inhibition of intestinal cholesterol absorption” value in data set [1], in data set [2], in data set [3], in data set [4] and in data set [5] was “very efficiently inhibits” each time.

On to `O=C1[C@H](CC[C@H](O)c2ccc(F)cc2)[C@@H](c2ccc(O)cc2)N1c1ccc(F)cc1` [SCH 58235], for which, in data set [5] (direct comparison with SCH 48461), the “increase of effect on direct comparison” value is recorded as 50 fold.

Regarding `CC[C@H](CC[C@@H](C)[C@H]1CC[C@H]2[C@@H]3CC=C4C[C@@H](O)CC[C@]4(C)[C@H]3CC[C@]12C)C(C)C` [β-sitosterol], the “inhibition of cholesterol absorption” value in data set [1] (background statement) was “an inhibition of cholesterol absorption”.
